Test results taken from US11059780B2, “Substituted pyrrolidine compound and use thereof” (Takeda Pharmaceutical Company Limited, priority 2017, dated 2021).

Target: T1, human orexin type 2 receptor (hOX2R) (Homo sapiens, UniProt O43614)
T1 construct: expressed in transfected cells
T1 sequence (O43614 1-444): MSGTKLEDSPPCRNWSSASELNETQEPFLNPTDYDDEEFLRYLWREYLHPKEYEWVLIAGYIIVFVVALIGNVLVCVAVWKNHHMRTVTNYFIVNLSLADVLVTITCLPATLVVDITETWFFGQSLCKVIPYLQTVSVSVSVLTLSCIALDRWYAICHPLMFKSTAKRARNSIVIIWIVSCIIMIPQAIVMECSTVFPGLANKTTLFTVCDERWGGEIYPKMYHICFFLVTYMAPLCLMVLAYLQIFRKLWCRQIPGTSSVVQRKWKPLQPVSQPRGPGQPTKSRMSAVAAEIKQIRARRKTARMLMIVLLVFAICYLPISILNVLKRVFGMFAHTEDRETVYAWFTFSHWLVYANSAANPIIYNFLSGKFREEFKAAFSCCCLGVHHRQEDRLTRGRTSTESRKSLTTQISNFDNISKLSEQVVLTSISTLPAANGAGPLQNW
Test: Measurement of orexin type 2 receptor agonist activity (Fluo-4 calcium fluorescence, CHO cells forcibly expressing human OX2 receptor)
Assay type: cell-based
Conditions: test compound 3 μM, DMSO = 0%, orexin A (human) 10 nM = 100%
Text: Experimental Example 1: Obtainment of Cell Stably Expressing Human Orexin Type 2 Receptor (hOX2R)
To obtain a cell clone stably expressing human orexin type 2 receptor, human orexin type 2 receptor cDNA was inserted into pcDNA3.1(+) plasmid vector (Invitrogen), and a plasmid DNA for expression of human orexin type 2 receptor (pcDNA3.1(+)/hOX2R) was cloned. The plasmid DNA was introduced into CHO-dhfr cell by an electroporation method, and human orexin type 2 receptor expressing clone cells were obtained by limiting dilution method by using G418 drug resistance as a selection marker.
Experimental Example 2: Measurement of Orexin Type 2 Receptor Agonist Activity
CHO cells forcibly expressing human OX2 receptor were seeded in each well of 384 well black transparent bottom plate (BD Falcon) at 7,500 cells/well, and cultured for one day in a 5% CO2 incubator at 37° C. After removal of the medium in the cell plate, assay buffer A containing a calcium indicator (HBSS (Life Technologies), 20 mM HEPES (Life Technologies), 0.1% BSA (Wako Pure Chemical Industries, Ltd.), 2.5 μg/mL Fluo-4 AM (DOJINDO Chemical), 0.08% Pluronic F127 (DOJINDO Chemical), 1.25 mM probenecid (DOJINDO Chemical)) was added at 30 μL/well. The plate was stood for 30 min in a 5% CO2 incubator at 37° C., and further stood at room temperature for 30 min. A test compound prepared by diluting with assay buffer B (HBSS, 20 mM HEPES, 0.1% BSA) was added at 10 μL/well, and the fluorescence value was measured by FDSSpCELL (Hamamatsu Photonics K.K.) every one sec for 1 min, and thereafter every two sec for 1 min 40 sec. The activity (%) of the test compound was calculated assuming that variation in the fluorescence value when DMSO was added instead of the test compound was 0% […], and variation in the fluorescence value when orexin A (human) (PEPTIDE INSTITUTE, INC.) was added at the final concentration of 10 nM was 100% […]. The activity of each compound at the concentration of 3 μM was shown below.

Compared with `CCc1cccc(C)c1C(=O)N1C[C@@H](OC)[C@H](Oc2cccc(CS(=O)(=O)N(C)[C@@H]3C[C@H]4CC[C@@H](C3)O4)c2)C1` [Example 149, 1-(3-(((3R,4R)-1-(2-ethyl-6-methylbenzoyl)-4-methoxypyrrolidin-3-yl)oxy)phenyl)-N-methyl-N-((3-exo)-8-oxabicyclo[3.2.1]oct-3-yl)methanesulfonamide], `CCc1cccc(C)c1C(=O)N1C[C@@H](OC)[C@H](Oc2cccc(CS(=O)(=O)N(C)C3CCOCC3)c2)C1` (relative stereo) [Example 155, trans-1-(3-((-1-(2-ethyl-6-methylbenzoyl)-4-methoxypyrrolidin-3-yl)oxy)phenyl)-N-methyl-N-(tetrahydro-2H-pyran-4-yl)methanesulfonamide] is lower in “OX2R agonist activity (3 μM, %)” value: 110% for the first, 108% for the second.

First: CO[C@@H]1CN(C(=O)c2cc(C)ccc2C)C[C@H]1Oc1cccc(NS(=O)(=O)N2CCC2)c1 (relative stereo) [Example 48, trans-N-(3-((1-(2,5-dimethylbenzoyl)-4-methoxypyrrolidin-3-yl)oxy)phenyl)azetidine-1-sulfonamide]
Second: CO[C@@H]1CN(C(=O)c2cc(C)ccc2C)C[C@H]1Oc1cccc(NS(=O)(=O)N2CCCC2C)c1 (relative stereo) [Example 23, trans-N-(3-((1-(2,5-dimethylbenzoyl)-4-methoxypyrrolidin-3-yl)oxy)phenyl)-2-methylpyrrolidine-1-sulfonamide]
The “OX2R agonist activity (3 μM, %)” value of the first is higher: 62% for the first, 60% for the second.

Going from `CO[C@@H]1CN(C(=O)c2cc(C)ccc2C)C[C@H]1Oc1cccc(NS(=O)(=O)N2CCCC2Cc2cccnc2)c1` (relative stereo) [Example 67, trans-N-(3-((1-(2,5-dimethylbenzoyl)-4-methoxypyrrolidin-3-yl)oxy)phenyl)-2-(pyridin-3-ylmethyl)pyrrolidine-1-sulfonamide] to `CO[C@@H]1CN(C(=O)c2cc(C)ccc2C)C[C@H]1Oc1cccc(CS(=O)(=O)N2CCCC2c2ccncc2)c1` (relative stereo) [Example 18, trans-(2,5-dimethylphenyl)(3-methoxy-4-(3-(((2-(pyridin-4-yl)pyrrolidin-1-yl)sulfonyl)methyl)phenoxy)pyrrolidin-1-yl)methanone], the “OX2R agonist activity (3 μM, %)” value falls from 82% to 75%.

First: CO[C@@H]1CN(C(=O)c2cc(C)ccc2C)C[C@H]1Oc1cccc(CS(=O)(=O)N2CCCC2c2ccc(C)nc2)c1 (relative stereo) [Example 112, trans-(2,5-dimethylphenyl)(3-methoxy-4-(3-(((2-(6-methylpyridin-3-yl)pyrrolidin-1-yl)sulfonyl)methyl)phenoxy)pyrrolidin-1-yl)methanone]
Second: CO[C@@H]1CN(C(=O)c2cc(C)ccc2C)C[C@H]1Oc1cccc(CS(=O)(=O)N2CCCC2c2cccnc2C)c1 (relative stereo) [Example 114, trans-(2,5-dimethylphenyl)(3-methoxy-4-(3-(((2-(2-methylpyridin-3-yl)pyrrolidin-1-yl)sulfonyl)methyl)phenoxy)pyrrolidin-1-yl)methanone]
The “OX2R agonist activity (3 μM, %)” value of the first is lower: 77% for the first, 100% for the second.

Going from `CO[C@@H]1CN(C(=O)Oc2ccccc2C)C[C@H]1Oc1cccc(NS(=O)(=O)N2CC3CC3C2)c1` (stereo partly drawn) [Example 138, 2-methylphenyl(3R,4R)-3-(3-((3-azabicyclo[3.1.0]hex-3-ylsulfonyl)amino)phenoxy)-4-methoxypyrrolidine-1-carboxylate] to `CCc1ccccc1C(=O)N1C[C@@H](OC)[C@H](Oc2cccc(NS(=O)(=O)N3CC4CC4C3)c2)C1` (stereo partly drawn) [Example 129, N-(3-(((3R,4R)-1-(2-ethylbenzoyl)-4-methoxypyrrolidin-3-yl)oxy)phenyl)-3-azabicyclo[3.1.0]hexane-3-sulfonamide], the “OX2R agonist activity (3 μM, %)” value rises from 38% to 96%.

Compared with `CO[C@@H]1CN(C(=O)c2cc(C)ccc2C)C[C@H]1Oc1cccc(NS(=O)(=O)N2CCC3(CC3)C2)c1` (relative stereo) [Example 69, trans-N-(3-((1-(2,5-dimethylbenzoyl)-4-methoxypyrrolidin-3-yl)oxy)phenyl)-5-azaspiro[2.4]heptane-5-sulfonamide], `CO[C@@H]1CN(C(=O)c2cc(C)ccc2C)C[C@H]1Oc1cccc(NS(=O)(=O)N2CCC3(COC3)C2)c1` (relative stereo) [Example 70, trans-N-(3-((1-(2,5-dimethylbenzoyl)-4-methoxypyrrolidin-3-yl)oxy)phenyl)-2-oxa-6-azaspiro[3.4]octane-6-sulfonamide] is higher in “OX2R agonist activity (3 μM, %)” value: 82% for the first, 90% for the second.

Going from `COc1nccc(C)c1C(=O)N1C[C@@H](OC)[C@H](Oc2cccc(CS(=O)(=O)N(C)C3CCOCC3)c2)C1` (relative stereo) [Example 161, trans-1-(3-((4-methoxy-1-((2-methoxy-4-methylpyridin-3-yl)carbonyl)pyrrolidin-3-yl)oxy)phenyl)-N-methyl-N-(tetrahydro-2H-pyran-4-yl)methanesulfonamide] to `CCc1ccc(C)c(C(=O)N2C[C@@H](OC)[C@H](Oc3cccc(CS(=O)(=O)N(C)C4CCOCC4)c3)C2)c1OC` (relative stereo) [Example 164, trans-1-(3-((1-(3-ethyl-2-methoxy-6-methylbenzoyl)-4-methoxypyrrolidin-3-yl)oxy)phenyl)-N-methyl-N-(tetrahydro-2H-pyran-4-yl)methanesulfonamide], the “OX2R agonist activity (3 μM, %)” value falls from 102% to 86%.

First: COC1CN(C(=O)c2cc(C)ccc2C)CC1Oc1cc(NS(=O)(=O)N2C[C@@H]3C[C@H]3C2)cc(C)n1 (relative stereo) [Example 117, trans-N-(2-((1-(2,5-dimethylbenzoyl)-4-methoxypyrrolidin-3-yl)oxy)-6-methylpyridin-4-yl)-3-azabicyclo[3.1.0]hexane-3-sulfonamide]
Second: CO[C@@H]1CN(C(=O)c2cc(C)ccc2C)C[C@H]1Oc1cccc(NS(=O)(=O)N2CC3CC3C2)c1 (stereo partly drawn) [Example 109, N-(3-(((3R,4R)-1-(2,5-dimethylbenzoyl)-4-methoxypyrrolidin-3-yl)oxy)phenyl)-3-azabicyclo[3.1.0]hexane-3-sulfonamide]
The “OX2R agonist activity (3 μM, %)” value of the first is higher: 93% for the first, 84% for the second.

Going from `CO[C@@H]1CN(C(=O)c2cc(C)ccc2C)C[C@H]1Oc1cccc(CS(=O)(=O)N2CCCC2c2ccccn2)c1` (relative stereo) [Example 15, trans-(2,5-dimethylphenyl)(3-methoxy-4-(3-(((2-(pyridin-2-yl)pyrrolidin-1-yl)sulfonyl)methyl)phenoxy)pyrrolidin-1-yl)methanone] to `CO[C@@H]1CN(C(=O)c2cc(C)ccc2C)C[C@H]1Oc1cccc(NS(=O)(=O)N(C)CC2CCOC2)c1` (relative stereo) [Example 62, trans-N′-(3-((1-(2,5-dimethylbenzoyl)-4-methoxypyrrolidin-3-yl)oxy)phenyl)-N-methyl-N-(tetrahydrofuran-3-ylmethyl)sulfuric diamide], the “OX2R agonist activity (3 μM, %)” value falls from 80% to 74%.

Going from `CO[C@@H]1CN(C(=O)c2c(C)cccc2C)C[C@H]1Oc1cccc(NS(=O)(=O)N2CC3CC3C2)c1` (stereo partly drawn) [Example 120, N-(3-(((3R,4R)-1-(2,6-dimethylbenzoyl)-4-methoxypyrrolidin-3-yl)oxy)phenyl)-3-azabicyclo[3.1.0]hexane-3-sulfonamide] to `CCc1cccc(C)c1C(=O)N1C[C@@H](OC)[C@H](Oc2cccc(CS(=O)(=O)N(C)C3CCOC(C)(C)C3)c2)C1` (relative stereo) [Example 140, trans-N-(2,2-dimethyltetrahydro-2H-pyran-4-yl)-1-(3-((1-(2-ethyl-6-methylbenzoyl)-4-methoxypyrrolidin-3-yl)oxy)phenyl)-N-methylmethanesulfonamide], the “OX2R agonist activity (3 μM, %)” value rises from 107% to 109%.
